Reference: ChEMBL document CHEMBL2074311, “ATP-dependent para-aminohippurate transport by apical multidrug resistance protein MRP2” (Kidney Int, 2000)

Columns and labels:
[1] = molecular target: T1, ATP-binding cassette sub-family C member 2 (Homo sapiens, UniProt Q92887); test: TP_TRANSPORTER: uptake in membrane vesicles from MRP2-expressing HEK cells; type: functional, cell membranes, Membrane vesicle; settings: hek293
[2] = molecular target: T1, ATP-binding cassette sub-family C member 2; test: TP_TRANSPORTER: inhibition of PAH uptake (PAH: 0.1uM) in membrane vesicles from MRP2-expressing HEK cells; type: functional, cell membranes, HEK293, Membrane vesicle

T1 sequence (Q92887 whole entry): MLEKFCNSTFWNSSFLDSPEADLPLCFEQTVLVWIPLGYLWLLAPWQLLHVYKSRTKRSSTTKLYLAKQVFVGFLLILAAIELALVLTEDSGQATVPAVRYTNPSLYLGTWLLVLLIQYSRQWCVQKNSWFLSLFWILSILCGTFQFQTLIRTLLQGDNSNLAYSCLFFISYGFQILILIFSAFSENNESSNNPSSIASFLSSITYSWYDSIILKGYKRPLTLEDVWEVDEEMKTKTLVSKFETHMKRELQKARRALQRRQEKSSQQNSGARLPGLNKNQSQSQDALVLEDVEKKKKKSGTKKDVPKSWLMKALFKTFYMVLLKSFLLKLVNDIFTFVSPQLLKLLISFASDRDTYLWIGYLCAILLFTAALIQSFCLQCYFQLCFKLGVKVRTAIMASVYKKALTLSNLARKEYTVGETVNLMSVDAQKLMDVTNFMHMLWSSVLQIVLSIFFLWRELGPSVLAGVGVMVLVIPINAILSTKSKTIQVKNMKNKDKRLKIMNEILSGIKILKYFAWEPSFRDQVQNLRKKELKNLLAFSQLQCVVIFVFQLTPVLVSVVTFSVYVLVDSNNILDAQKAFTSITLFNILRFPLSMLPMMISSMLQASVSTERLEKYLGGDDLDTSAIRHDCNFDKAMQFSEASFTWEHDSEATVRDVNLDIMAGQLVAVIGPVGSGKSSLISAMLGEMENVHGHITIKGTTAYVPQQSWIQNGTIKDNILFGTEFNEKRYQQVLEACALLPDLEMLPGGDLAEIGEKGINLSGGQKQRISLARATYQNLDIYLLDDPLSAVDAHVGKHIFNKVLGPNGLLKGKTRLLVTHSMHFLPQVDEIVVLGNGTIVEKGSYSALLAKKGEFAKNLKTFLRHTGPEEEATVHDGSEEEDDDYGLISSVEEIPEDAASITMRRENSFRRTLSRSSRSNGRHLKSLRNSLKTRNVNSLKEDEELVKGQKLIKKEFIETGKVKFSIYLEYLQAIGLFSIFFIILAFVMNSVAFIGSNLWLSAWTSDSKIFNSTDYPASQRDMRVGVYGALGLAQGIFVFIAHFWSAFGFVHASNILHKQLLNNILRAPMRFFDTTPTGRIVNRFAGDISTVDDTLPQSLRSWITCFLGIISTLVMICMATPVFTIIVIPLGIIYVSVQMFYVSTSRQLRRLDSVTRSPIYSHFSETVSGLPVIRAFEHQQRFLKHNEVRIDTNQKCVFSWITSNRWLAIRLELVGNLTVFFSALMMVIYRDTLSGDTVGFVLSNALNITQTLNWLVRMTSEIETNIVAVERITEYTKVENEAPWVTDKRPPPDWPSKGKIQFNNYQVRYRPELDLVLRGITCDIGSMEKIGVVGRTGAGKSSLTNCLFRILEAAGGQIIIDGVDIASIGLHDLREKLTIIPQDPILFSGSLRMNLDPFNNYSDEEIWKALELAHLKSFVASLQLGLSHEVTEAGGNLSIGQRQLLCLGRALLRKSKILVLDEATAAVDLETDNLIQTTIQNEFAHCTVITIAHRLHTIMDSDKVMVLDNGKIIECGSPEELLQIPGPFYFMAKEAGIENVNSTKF

IC50 [2] [µM]	SMILES	Activity [1]
3.3	CCCCC/C=C\C\C=C/C=C/C=C/[C@@H](SC[C@@H](NC(=O)CC[C@H](N)C(=O)O)C(=O)NCC(=O)O)[C@@H](O)CCCC(=O)O [LEUKOTRIEN C4]	
4	CN(C)C(=O)CCSC(SCCC(=O)O)c1cccc(/C=C/c2ccc3ccc(Cl)cc3n2)c1 (centres undefined) [MK-571]	

SMILES	IC50 [2] [µM]	Activity [1]
C[C@@H]1Cc2c(Cl)cc(C(=O)N[C@@H](Cc3ccccc3)C(=O)O)c(O)c2C(=O)O1 [3R14S-OCHRATOXIN A]	58	substrate [+]
